The values below come from US9108941B2, “Griseofulvin analogues for the treatment of cancer by inhibition of centrosomal clustering” (DEUTSCHES KREBSFORSCHUNGSZENTRUM STIFTUNG DES OEFFENTLICHEN …, priority 2008, dated 2015).

In data set [1] the test system is GFP-α-tubulin expressing SCC114 cells. The data set can be described thus: Treatment of GFP-α-tubulin expressing SCC114 cells with griseofulvin analogues (inhibition of centrosomal clustering). The data set is classed as cell-based. Particulars: Homo sapiens, Table 1, analogues diluted 100 micromolar to 10 nanomolar. As for the experimental part: Cell Culture. All cell lines were cultured in Dulbecco's modified Eagle's Medium (DMEM; PAA Laboratories, Pasching, Austria) supplemented with 10% FCS (PAA). SCC114 cells stably expressing GFP-α-tubulin were generated by transfection (Eugene 6, Roche Diagnostics, Mannheim, Germany) of the transgene in pEGFP-C1 (Clontech, Heidelberg, Germany) and maintained under selective pressure by addition of geniticin (Invitrogen, Karlsruhe, Germany) Primary normal human epidermal keratinocytes (NHEK; PromoCell, Heidelberg, Germany) were cultured in Keratinocyte Growth Medium 2 (PromoCell). When indicated a griseofulvin analogue was added to the culture medium. The griseofulvin analogue was dissolved in DMSO (Sigma). In all experiments, the final DMSO concentration was 0.1%.
Treatment of GFP-α-tubulin expressing SCC114 cells with griseofulvin analogues. Analogues were dissolved in DMSO/water and diluted to span a concentration range of 100 micromolar to 10 nanomolar.

Each structure is given as a SMILES string.

For orientation: IC50 means the point on the concentration scale where inhibition reaches its midpoint. For orientation: melting point means the temperature, or range, at which the solid turns liquid. As to `COc1cc(OC)c2c(c1Cl)O[C@]1(C2=O)C(OCc2ccc(I)cc2)=CC(=O)C[C@H]1C` [Compound 2, (2S,6′R)-(7-Chloro-4,6-dimethoxy-benzofuran-3-one)-2-spiro-1′-(2′-(4-iodobenzyloxy)-6′-methyl-cyclohex-2′-ene-4′-one)], the melting point lay in the range of 166 to 168 °C. In data set [1], this molecule registered a half-maximal inhibitory concentration (IC50) of 3.3 µM. `CCCOC1=C(I)C(=O)C[C@@H](C)[C@]12Oc1c(Cl)c(OC)cc(OC)c1C2=O` [Compound 11, (2S,6′R)-(7-Chloro-4,6-dimethoxy-benzofuran-3-one)-2-spiro-1′-(3′-iodo-6′-methyl-2′-propoxy-cyclohex-2′-ene-4′-one)] displayed a melting point of 98 to 100 °C. In data set [1], this molecule returned an IC50 of 2.1 µM. For `COc1cc(OC)c2c(c1Cl)O[C@]1(C2=O)C(OCc2ccccc2I)=CC(=O)C[C@H]1C` [Compound 4, (2S,6′R)-(7-Chloro-4,6-dimethoxy-benzofuran-3-one)-2-spiro-1′-(2′-(2-iodobenzyloxy)-6′-methyl-cyclohex-2′-ene-4′-one)], in that order: 167 to 169 °C and 5.8 µM. Turning to `COc1cc(OC)c2c(c1Cl)O[C@]1(C2=O)C(OCc2ccc(-c3ccccc3)cc2)=CC(=O)C[C@H]1C` [Compound 9, (2S,6′R)-(7-Chloro-4,6-dimethoxy-benzofuran-3-one)-2-spiro-1′-(2′-(4-biphenylmethoxy)-6′-methyl-cyclohex-2′-ene-4′-one)], the IC50 in data set [1] worked out at 3.2 µM. In other words, the single-digit micromolar range. `COc1cc(OC)c2c(c1Cl)O[C@]1(C2=O)C(Oc2ccccc2)=CC(=O)C[C@H]1C` [Compound 10, (2S,6′R)-(7-Chloro-4,6-dimethoxy-benzofuran-3-one)-2-spiro-1′-(6′-methyl-2′-phenoxy-cyclohex-2′-ene-4′-one)] gave an IC50 in data set [1] of 1.5 µM. With `COc1cc(OC)c2c(c1Cl)O[C@]1(C2=O)C(OCc2ccc(C)cc2)=CC(=O)C[C@H]1C` [Compound 5, (2S,6′R)-(7-Chloro-4,6-dimethoxy-benzofuran-3-one)-2-spiro-1′-(6′-methyl-2′-(4-methylbenzyloxy)-cyclohex-2′-ene-4′-one)], the melting point lay in the range of 176 to 178 °C. In addition, in data set [1], half-maximal inhibition (IC50) was put at 0.9 µM.

As to `COc1cc(OC)c2c(c1Cl)O[C@]1(C2=O)C(OCc2ccc(Cl)cc2)=CC(=O)C[C@H]1C` [Compound 1, (2S,6′R)-(7-Chloro-4,6-dimethoxy-benzofuran-3-one)-2-spiro-1′-(2′-(4-chlorobenzyloxy)-6′-methyl-cyclohex-2′-ene-4′-one)], the melting point was in the range of 173 to 175 °C. In data set [1], the IC50 came out at 3.4 µM. Regarding `COc1cc(OC)c2c(c1Cl)O[C@]1(C2=O)C(OCc2ccc(CBr)cc2)=CC(=O)C[C@H]1C` [Compound 7, (2S,6′R)-(7-Chloro-4,6-dimethoxy-benzofuran-3-one)-2-spiro-1′-(6′-methyl-2′-(4-bromo-methylbenzyloxy)-cyclohex-2′-ene-4′-one)], the IC50 in data set [1] came to 4.7 µM. In other words, the single-digit micromolar range. `COc1cc(OC)c2c(c1Cl)O[C@]1(C2=O)C(OCc2cccc(I)c2)=CC(=O)C[C@H]1C` [Compound 3, (2S,6′R)-(7-Chloro-4,6-dimethoxy-benzofuran-3-one)-2-spiro-1′-(2′-(3-iodobenzyloxy)-6′-methyl-cyclohex-2′-ene-4′-one)]: the melting point is 171 to 174 °C.

As to `COc1cc(OC)c2c(c1Cl)O[C@]1(C2=O)C(OCc2ncc(C)c([N+](=O)[O-])c2C)=CC(=O)C[C@H]1C` [Compound 8, (2S,6′R)-(7-Chloro-4,6-dimethoxy-benzofuran-3-one)-2-spiro-1′-(6′-methyl-2′-((3,5-dimethyl-4-nitro-pyrid-2-yl)methyloxy)-cyclohex-2′-ene-4′-one)], the IC50 in data set [1] is 9.1 µM. This lies in the single-digit micromolar range. In data set [1], `COc1cc(OC)c2c(c1Cl)O[C@]1(C2=O)C(OCc2ccc(CO)cc2)=CC(=O)C[C@H]1C` [Compound 6, (2S,6′R)-(7-Chloro-4,6-dimethoxy-benzofuran-3-one)-2-spiro-1′-(6′-methyl-2′-(4-hydroxymethylbenzyloxy)-cyclohex-2′-ene-4′-one)] registered an IC50 of 1.2 µM.
